Experiment [1] has as its system PANC-03-27 (Pancreatic Carcinoma). Nature of the experiment: combination Emax (second highest fraction inhibited in the dose matrix, 72 h); higher = more inhibition; extreme values may be limits of the assay. A digest of the protocol:
(§1)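 Cell lines in DMEM/F12 or RPMI with 10% FBS were plated in 1536-well plates, held 24 hours at 37°C, 5% CO2, then given two-drug dose matrices for 72 hours (DMSO typically 0.2%). Viability was read by CellTiter-Glo 2.0 luminescence and scaled as inhibition from 0 (vehicle wells) to 1 (blank wells). Combination Emax is the second-highest inhibition in the matrix; Bliss excess is observed combination effect minus expected EA + EB − EA·EB, EA and EB being single-agent effects.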

The test system of experiment [2] is PC-3_[JPC-3] (Lung Adenocarcinoma). The description is as above. A digest of the protocol: as §1
Experiment [3] deals with VAL (B-Cell Non-Hodgkin's Lymphoma). Described as above. The procedure, abridged: as §1
The subject of the next experiment is SK-MEL-2 (Melanoma). The description is as above. A digest of the protocol:
as §1

For experiment [4], the system named is TE-8 (Esophageal Squamous Cell Carcinoma). Described as above. A digest of the protocol:
as §1

Experiment [5] deals with SHP-77 (Small Cell Lung Carcinoma). The experiment is described as above. The procedure, abridged:
as §1

The test system of experiment [6] is RCM-1 (Colorectal Carcinoma). Described as above. A digest of the protocol: as §1
Experiment [7] deals with SK-PN-DW (Other Solid Carcinomas). The experiment is described as above. The procedure, abridged: as §1
The test system of experiment [8] is OPM-2 (Plasma Cell Myeloma). Described as above. A digest of the protocol: as §1
Experiment [9] has as its system L-1236 (Hodgkin's Lymphoma). The description is as above. A digest of the protocol: as §1
Experiment [10] has as its system HSC-39 (Gastric Carcinoma). The experiment is described as above. The procedure, abridged:
as §1

Experiment [11] has as its system IST-MES1 (Mesothelioma). Described as above. The procedure, abridged:
as §1

Experiment [12] deals with MKN45 (Gastric Carcinoma). The description is as above. A digest of the protocol:
as §1

The test system of experiment [13] is CAL-62 (Thyroid Gland Carcinoma). The description is as above. The procedure, abridged:
as §1

In the next experiment the test system is SF539 (Glioblastoma). The description is as above. The procedure, abridged:
as §1

For experiment [14], the system named is PSN1 (Pancreatic Carcinoma). The experiment is described as above. A digest of the protocol: as §1
Experiment [15] relates to PC-3_[JPC-3] (Lung Adenocarcinoma). Nature of the experiment: Bliss excess, mean over the matrix (fraction); higher = more synergy. A digest of the protocol:
as §1

Experiment [16] deals with RKN (Other Solid Carcinomas). The experiment is described as above. The procedure, abridged: as §1
Experiment [17] has as its system IST-MES1 (Mesothelioma). The experiment is described as above. A digest of the protocol:
as §1

Experiment [18] relates to CAL-62 (Thyroid Gland Carcinoma). The description is as above. The procedure, abridged:
as §1
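Wherever Bliss excess, mean over the matrix is given: after 72 h of two-drug dosing.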

As for `C[C@@H]1COCCN1c1cc(C2([S@](C)(=N)=O)CC2)nc(-c2ccnc3[nH]ccc23)n1` [AZD6738] + C1CC(C1)(C(=O)[O-])C(=O)[O-].N.N.[Pt+2] [Carboplatin] (first compound max 10 µM, 7x7, partner max 10 µM), the “combination Emax” value in experiment [1] worked out at 0.652; in experiment [2] it was 0.294; in experiment [3] it was 0.7; in the experiment with SK-MEL-2 (Melanoma) it was 0.201; in [4], 0.522; in experiment [5], 0.506. The “combination Emax” value was 0.638 in experiment [6]; 0.903 in [7]; 0.828 in experiment [8]; 0.807 in experiment [9]; 1 in experiment [10]; 0.461 in the experiment with IST-MES1 (Mesothelioma) [11]. The “combination Emax” value in experiment [12] is 0.708; in experiment [13], 0.684; in the experiment with SF539 (Glioblastoma), 0.875; in experiment [14], 0.435. Also, the Bliss excess is -0.0326 in [15], -0.0615 in experiment [16], -0.0502 with IST-MES1 (Mesothelioma) [17] and -0.0402 in experiment [18].

As to `Cc1nc(-c2cn3c(n2)-c2ccc(-c4cnn(C(C)(C)C(N)=O)c4)cc2OCC3)n(C(C)C)n1` [Taselisib] + O=C(Nc1ccc2[nH]nc(-c3ccncc3)c2c1)[C@@H]1CCN(CC(=O)N2CCN(c3ccc(-c4ncccn4)cc3)CC2)C1 [SCH772984] (first compound max 10 µM, 7x7, partner max 5 µM), the “combination Emax” value in [1] is 0.885; in [2], 0.665; in experiment [3], 0.6; with SK-MEL-2 (Melanoma), 0.968; in experiment [4], 0.758; in experiment [5], 0.387. In addition, the “combination Emax” value in [6] came to 0.803; in [7], 0.609; in experiment [8] it was 1; in [9], 0.722; in [10] it was 0.985; in the experiment on IST-MES1 (Mesothelioma) [11], 0.516. Also, the “combination Emax” value in experiment [12] was 0.798; in [13] it was 0.637; with SF539 (Glioblastoma), 0.934; in experiment [14] it was 0.946. Also, the Bliss excess in [15] is 0.0293; in experiment [16], 0.0798; in the experiment on IST-MES1 (Mesothelioma) [17], -0.0307; in experiment [18], 0.0096.

`O=C(c1cc(Cc2n[nH]c(=O)c3ccccc23)ccc1F)N1CCN(C(=O)C2CC2)CC1` [Olaparib] + Cc1c2c(nn1C)CSCc1cc(n(C)n1)CSc1cc(c3ccccc3c1)OCCCc1c(C(=O)O)n(C)c3c-2c(Cl)ccc13 [AZD5991] (first compound max 10 µM, 7x7, partner max 1 µM): the “combination Emax” value stood at 0.128 in [1]; 0.0845 in experiment [2]; 0.771 in experiment [3]; 0.902 in the experiment with SK-MEL-2 (Melanoma); 0.184 in experiment [4]; 0.288 in experiment [5]. The “combination Emax” value in [6] stood at 0.0639; in experiment [7], 0.781; in experiment [8], 1; in experiment [9], 0.53; in experiment [10] it was 1; in the experiment on IST-MES1 (Mesothelioma) [11], 0.242. Besides, the “combination Emax” value in [12] was 0.185; in experiment [13], 0.0932; in the experiment with SF539 (Glioblastoma), 0.46; in experiment [14], 0.214. Moreover, the Bliss excess was -0.0456 in experiment [15], -0.0443 in experiment [16], -0.0434 in the experiment on IST-MES1 (Mesothelioma) [17] and -0.0483 in [18].

With `N#Cc1cnc(Nc2cc(NC[C@H]3CNCCO3)c(C(F)(F)F)cn2)cn1` [SRA737] + CCc1c2c(nc3ccc(O)cc13)-c1cc3c(c(=O)n1C2)COC(=O)[C@]3(O)CC [SN-38] (first compound max 10 µM, 7x7, partner max 0.3 µM), the “combination Emax” value is 0.844 in experiment [1]; 0.72 in experiment [2]; 0.947 in experiment [3]; 0.693 with SK-MEL-2 (Melanoma); 0.838 in experiment [4]; 0.912 in [5]. For the same compound, the “combination Emax” value was 0.768 in [6]; 0.927 in experiment [7]; 0.926 in experiment [8]; 0.944 in experiment [9]; 1 in [10]; 0.759 in the experiment on IST-MES1 (Mesothelioma) [11]. Further, the “combination Emax” value stood at 0.868 in experiment [12], 0.865 in [13], 0.971 in the experiment on SF539 (Glioblastoma) and 0.908 in experiment [14]. Also, the Bliss excess in experiment [15] was -0.0536; in experiment [16], 0.0914; in the experiment on IST-MES1 (Mesothelioma) [17] it was -0.0108; in experiment [18] it was -0.0228.

For the compound `CS(=O)(=O)CCNCc1ccc(-c2ccc3ncnc(Nc4ccc(OCc5cccc(F)c5)c(Cl)c4)c3c2)o1` [Lapatinib] + Cn1cnc2c(F)c(Nc3ccc(Br)cc3Cl)c(C(=O)NOCCO)cc21 [Selumetinib] (first compound max 10 µM, 7x7, partner max 10 µM), the “combination Emax” value in experiment [1] came to 0.812; in experiment [2] it was 0.653; in experiment [3], 0.597; with SK-MEL-2 (Melanoma), 0.793; in experiment [4] it was 0.521; in [5], 0.387. Also, the “combination Emax” value in [6] is 0.754; in [7] it was 0.556; in experiment [8] it was 0.533; in experiment [9] it was 0.712; in experiment [10], 0.99; in the experiment with IST-MES1 (Mesothelioma) [11] it was 0.55. In addition, the “combination Emax” value in experiment [12] worked out at 0.635; in experiment [13], 0.477; with SF539 (Glioblastoma), 0.601; in experiment [14] it was 0.748. For the same compound, the Bliss excess was -0.0292 in experiment [15], -0.0081 in experiment [16], -0.0348 in the experiment on IST-MES1 (Mesothelioma) [17] and -0.0284 in experiment [18].

As to `C=CCn1c(=O)c2cnc(Nc3ccc(N4CCN(C)CC4)cc3)nc2n1-c1cccc(C(C)(C)O)n1` [AZD1775] + CCc1c2c(nc3ccc(O)cc13)-c1cc3c(c(=O)n1C2)COC(=O)[C@]3(O)CC [SN-38] (first compound max 1 µM, partner max 0.3 µM), the “combination Emax” value is 0.844 in [1]; 0.736 in [2]; 0.953 in experiment [3]; 0.619 in the experiment on SK-MEL-2 (Melanoma); 0.923 in experiment [4]; 0.651 in experiment [5]. Further, the “combination Emax” value in [6] stood at 0.775; in [7], 0.947; in experiment [8] it was 0.954; in experiment [9], 0.969; in experiment [10] it was 1; with IST-MES1 (Mesothelioma) [11], 0.778. Further, the “combination Emax” value in [12] was determined as 0.843; in experiment [13], 0.893; with SF539 (Glioblastoma), 0.997; in [14], 0.927. In addition, the Bliss excess in [15] was -0.0575; in experiment [16] it was 0.0378; in the experiment with IST-MES1 (Mesothelioma) [17], 0.0008; in [18] it was -0.0489.

With `C=CCn1c(=O)c2cnc(Nc3ccc(N4CCN(C)CC4)cc3)nc2n1-c1cccc(C(C)(C)O)n1` [AZD1775] + Nc1ccn([C@@H]2O[C@H](CO)[C@@H](O)C2(F)F)c(=O)n1 [Gemcitabine] (first compound max 1 µM, partner max 0.3 µM), the “combination Emax” value in experiment [1] worked out at 0.703; in experiment [2], 0.574; in experiment [3], 0.794; in the experiment on SK-MEL-2 (Melanoma) it was 0.507; in experiment [4], 0.806; in [5] it was 0.676. Besides, the “combination Emax” value in [6] was 0.593; in experiment [7], 0.864; in experiment [8], 0.953; in experiment [9], 0.954; in experiment [10], 1; in the experiment on IST-MES1 (Mesothelioma) [11], 0.831. Besides, the “combination Emax” value in experiment [12] was found to be 0.753; in experiment [13] it was 0.826; in the experiment on SF539 (Glioblastoma) it was 0.986; in [14], 0.832. Also, the Bliss excess in [15] was -0.035; in [16] it was 0.0082; in the experiment with IST-MES1 (Mesothelioma) [17], 0.0603; in [18], -0.0162.

(Values after the supplement of paper PMC11061612.)
